Patent publication US20080050443A1, “Fast Release Composition Including Melt Granules of a Moisture Sensitive Drug and Process for Manufacturing Thereof” (priority 2004, published 2008)

Assay: Moisture sensitivity of Compound I
Type: physicochemical
Excerpt: This monohydrochloride of formula (I) (hereinafter, “Compound I”) is described in scheme 2 of Villhauer et al., J Med Chem, Vol. 45, No. 12, pp. 2362-65 (2002), which is hereby incorporated by reference. Compound I is a moisture-sensitive therapeutic compound. At humidities above 75%, Compound I absorbs moisture and begins to deliquesce; moreover, Compound I undergoes both acidic and basic degradation with cyclic imidate (“CI”) being the major degradation product.

With `Cl.N#Cc1ccc(NCCNCC(=O)N2CCC[C@H]2C#N)nc1` [Compound I, [S]-1-[2-(5-cyano-2-pyridinylamino)ethylamino]acetyl-2-pyrolidine carbonitrile monohydrochloride] the “humidity at which Compound I absorbs moisture and begins to deliquesce” value was “above 75%”.
